Paper PMC10895668, “Lead Optimization of the 5-Phenylpyrazolopyrimidinone NPD-2975 toward Compounds with Improved Antitrypanosomal Efficacy” (Journal of Medicinal Chemistry, 2024)
Read-outs that look alike come from different tables or passages of the source.

Tests used:
[1] = tested on: T. b. brucei; details: for survival: n = 3
Method: (§1) The antiparasitic assays were carried out exactly as described in Blaazer et al.([39]) Metabolic stability, pharmacokinetics, acute mouse infection model results were collected as described previously.[21] All animal experiments were conducted in compliance with institutional guidelines and following approval by the Ethical Committee of the University of Antwerp, Belgium [UA-ECD 2014–96]. Female Swiss mice (15–20 g), were purchased from Janvier (Le Genest Saint Isle, France). […] Animals were treated PO b.i.d. for 5 days at 25 and 50 mg/kg 31c. For the SL-RNA qPCR experiments blood was collected sublingually and subjected to erythrocyte lysis before extracting RNA with the QIAamp RNA Blood Mini kit (Qiagen). […] Small pieces of fat, brain, and spleen tissue were excised and immediately transferred to RNA later (Qiagen) and incubated overnight at 4 °C. RNA extraction was performed as instructed in the RNeasy Mini Plus Kit manual (Qiagen). The one-step SensiFAST SYBR Hi-Rox PCR kit (Bioline USA Inc., via Gentaur Belgium BVBA, Kampenhout, Belgium) was used for the PCR with the following forward and reverse primers, respectively 5′-[…]-3′ and 5′-[…]-3′. An initial activation step of 10 min at 45 °C and 10 min at 95 °C was used, followed by the amplification step for 40 cycles (15 s at 95 °C, 15 s 50 °C and 15 s at 60 °C). At last, the melting curves were generated with an increment of 0.3 °C (15 s at 95 °C 1 min at 45 °C and 15 s at 95 °C). The PCR was run on the Step One Plus real-time PCR system (Applied Biosystems, California, USA). An additional qPCR was performed with the mouse housekeeping gene Eef2 to confirm successful RNA extraction.
Mice were allocated to groups of three and were infected by IP injection of 10^4T. brucei Squib 427 trypomastigotes. […] Suramin was included as a reference for T. brucei and injected IP s.i.d. for 5 days at 10 mg/kg. A PEG400 vehicle control group was also included. […] The first treatment was given 30 min prior to the artificial infection. Drug efficacy was evaluated by microscopic determination of the parasitemia in a blood drop collected from the tail vein at several time points until 63 days postinfection (dpi). […] An SL-RNA qPCR assay was performed in all surviving animals to confirm parasitological cure. For the SL-RNA qPCR, peripheral blood was subjected to erythrocyte lysis before extracting RNA with the QIAamp RNA Blood Mini kit (Qiagen). […] Small pieces of fat, brain, and spleen tissues were excised and immediately transferred to RNA later (Qiagen) and incubated overnight at 4 °C. RNA extraction was performed as instructed in the RNeasy Mini Plus Kit manual (Qiagen). […]

[2] = tested on: Leishmania infantum; test: Antiparasitic assay, L. infantum; type: cell-based; details: mean ± SD, n ≥ 2, read-out: pIC50 L. infantum (converted)
Method: First, they were tested in vitro against the protozoan species Trypanosoma cruzi and Leishmania infantum and the clinically relevant T. b. rhodesiense.
as §1, with “An initial activation step of 10 min at 45 °C and 10 min at 95 °C was used, followed by the amplification step for 40 cycles (15 s at 95 °C, 15 s 50 °C and 15 s at 60 °C). At last, the melting curves were generated with an increment of 0.3 °C (15 s at 95 °C 1 min at 45 °C and 15 s at 95 °C). The PCR was run on the Step One Plus real-time PCR system (Applied Biosystems, California, USA). An additional qPCR was performed with the mouse housekeeping gene Eef2 to confirm successful RNA extraction.” left out

[3] = mouse, microsomes

## CC(C)(C)c1n[nH]c2c(=O)[nH]c(-c3ccc(F)cc3)nc12 [31c, 3-(tert-Butyl)-5-(4-fluorophenyl)-1,6-dihydro-7H-pyrazolo[4,3-d]pyrimidin-7-one]
[1]; 25 mg/kg b.i.d. PO for 5 days, one accidental death in this group
  survival: survived throughout the 60 days postinfection follow-up period without relapse
[1]; 50 mg/kg b.i.d. PO for 5 days
  survival: survived throughout the 60 days postinfection follow-up period without relapse
[1]; blood, spleen, fat and brain tissue of surviving animals
  trypanosome Spliced Leader (SL) RNA by qPCR: difficulty to detect trypanosome Spliced Leader (SL) RNA
[2]
  IC50: > 63.1 µM
[3]
  Phase-I metabolic stability (in words): improved metabolic stability compared with 2
[3]; 1 h
  parent compound remaining: at least 69%
